Reference: PubChem BioAssay (NCI)
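96-well plates; 48 h exposure; 5 concentrations. Endpoints by linear interpolation between flanking doses. Not reached: highest tested concentration assigned. At the TGI there is no net growth.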

What was measured:
Assay in all cases: DTP human tumour cell line panel, 48 h
[1] = system: MALME-3M melanoma
[2] = system: MCF7 breast
[3] = system: MDA-N
[4] = system: RPMI-8226 leukemia
[5] = system: SW-620 colon
[6] = system: U251 CNS
[7] = system: UACC-257 melanoma
[8] = system: HOP-92 NSCLC
[9] = system: NCI-H522 lung
[10] = system: LOX IMVI melanoma

SMILES	TGI [1] [µM]	TGI [2] [µM]	TGI [3] [µM]	TGI [4] [µM]	TGI [5] [µM]	TGI [6] [µM]	TGI [7] [µM]	TGI [8] [µM]	TGI [9] [µM]	TGI [10] [µM]
O=C(O)c1ccc(N/C(=C(/C(Cl)=C(Cl)Cl)[N+](=O)[O-])n2nnc3ccccc32)cc1	> 100	> 100	> 100	> 100	> 100	> 100	> 100	–	–	–
O=C(N/N=C\c1ccc([N+](=O)[O-])s1)c1ccncc1	23.3	9.96	> 55.8	> 41.3	> 45.4	> 63.8	31.8	32.8	19.7	–
NN/C(=N\S(=O)(=O)c1ccc(S(=O)(=O)c2ccccc2)s1)Nc1ccc(Cl)cc1	–	> 100	41.8	> 100	> 100	> 100	67.5	73.3	–	36.6
CCOC(=O)CCC(NC(=O)c1ccc(Nc2nc3ccccc3nc2C(=O)OCC)cc1)C(=O)OCC (stereo not given)	26.3	> 79	> 100	> 100	49.9	9.66	> 100	13.9	16.7	> 41.5
O=[N+]([O-])C(C=C(n1nnc2ccccc21)n1nnc2ccccc21)=C(n1nnc2ccccc21)n1nnc2ccccc21	> 100	> 100	> 100	> 100	> 100	> 100	–	> 100	–	> 100
O=C1N(c2ccccc2)C(=S)/C(=C/c2ccc(Cl)cc2)N1c1ccc(Cl)cc1	63.9	> 100	> 100	52.5	> 100	96.6	> 100	–	38.4	76.5
O=c1cc(N2CCCC2)[nH]c(=O)n1-c1ccc(Cl)cc1	> 100	> 100	> 100	> 100	> 100	> 100	> 100	> 100	> 100	> 100
O=S(=O)(O)c1ccc2c(N=Nc3ccc(Sc4ccc(N=Nc5c(O)ccc6cc(S(=O)(=O)O)ccc56)cc4)cc3)c(O)ccc2c1	> 100	> 100	> 100	> 100	> 100	> 100	> 100	> 100	> 100	–
Cc1cc2ccc(N)nc2[nH]c1=O	> 100	> 100	> 100	> 100	> 100	> 100	> 100	> 100	> 100	–
Cc1c(O)c(=O)ccn1CCc1ccc(O)cc1	65.8	58.2	> 100	45.4	> 100	> 100	54.8	57	–	53.9
COc1ccc(-n2cnc3c(NC(Cc4ccccc4)C(=O)O)ncnc32)cc1 (stereo not given)	–	> 100	> 100	> 100	> 100	> 100	> 100	> 100	–	> 100
CN(C)CCNC(=O)c1c(O)ccc2c1c1c(n2CCc2ccccc2)C(=O)c2ccccc2C1=O	9.35	12.1	5.34	11.6	20.6	13.9	10.4	22.7	23	6.93
C=CCNC(=S)/N=C/C(C(=O)Nc1ccccc1C)=C(\C)O	–	> 100	> 100	> 100	> 100	> 100	> 100	–	> 100	> 100
CCOC(=O)c1cc(Br)c(-c2cc(C)co2)[nH]1	> 100	> 100	> 100	> 100	> 100	> 100	> 100	> 100	–	> 100
CC(=O)NC1C(OCc2ccccc2)OC(CO)C(O)C1OCC(=O)N[C@@H](C)C(=O)N[C@H](CCC(=O)NCCCNc1ccc([N+](=O)[O-])c2[nH]c3ccccc3c(=O)c12)C(N)=O (stereo not given in full)	> 100	–	> 100	> 100	> 100	> 100	> 100	> 100	> 100	> 100
O=C1c2cc([N+](=O)[O-])sc2C(=O)c2c([N+](=O)[O-])csc21	0.753	–	0.363	0.934	1.07	1.01	1.31	0.82	1.68	0.269
COC(=O)c1cc(/C=C\c2cc(OC)ccc2OC)ccc1OC	–	84.4	> 100	44.5	> 100	> 100	96.5	–	45.6	56.9
CCOC(=O)C1=C(C)N(Cc2ccccc2)C2(O)C=CC(=O)C3=C(O)c4ccccc4C(=O)C312 (stereo not given)	8.35	3.44	22.3	31.2	28.2	38.5	32.6	41.8	27.2	36.6
CC/C(N)=N\NC(=O)OC(C)(C)C	> 100	> 100	> 100	> 100	> 100	> 100	> 100	> 100	> 100	> 100
C[C@H](CCC(=O)NCC(=O)O)[C@H]1CC[C@H]2[C@@H]3[C@H](O)C[C@@H]4C[C@H](O)CC[C@]4(C)[C@H]3CC[C@]12C	> 100	> 100	> 100	> 100	> 100	> 100	> 100	> 100	> 100	> 100
CCNC(=S)N/N=C(\C)c1cccc(C)n1	> 100	> 100	> 100	–	> 100	83.2	> 100	53.1	26	> 100
FC(F)(F)c1ccc2nc(Sc3ccc4ccccc4c3)cnc2c1	> 100	95	> 100	–	> 100	> 100	> 100	> 100	> 100	> 100

SMILES	TGI [1] [µM]	TGI [2] [µM]	TGI [3] [µM]	TGI [4] [µM]	TGI [5] [µM]	TGI [6] [µM]	TGI [7] [µM]	TGI [8] [µM]	TGI [9] [µM]	TGI [10] [µM]
O=c1[nH]c2ccc([N+](=O)[O-])cc2nc1/C=C(\O)c1ccccc1	> 100	> 100	> 100	–	–	30.3	> 100	–	34.6	–
CC/C(=C\c1ccc(OC)cc1)c1ccc(OC)cc1	> 100	> 100	> 100	> 100	> 100	> 100	> 100	> 100	> 100	> 100
Cc1csc(-n2c(C)nc3cc(Cl)ccc3c2=O)n1	–	> 100	> 100	–	> 100	> 100	> 100	> 100	60.6	> 100
CN(C)/C=C/C=C(/C=N/S(=O)(=O)C(F)(F)F)C1C=CN(S(=O)(=O)C(F)(F)F)C=C1	82.7	–	> 100	> 100	> 100	> 100	77.7	90	52.4	> 100
CC1C2(C)OCC(C#N)(C(=N)O2)C1(C#N)C#N (stereo not given)	51.8	52.3	41.7	–	> 100	40.4	71.2	48.9	–	40.4
CCOC(=O)C(C/C=C/CO)N(C)C(=O)OC(C)(C)C (stereo not given)	–	> 100	> 100	> 100	> 100	> 100	> 100	> 100	61.4	> 100
COC(=O)C1c2cc3c(c(O)c2C(O)CC1(C)O)C(=O)c1c(O)cc2c(c1C3=O)OC1OC2(C)C(O)C(N(C)C)C1O (stereo not given)	–	2.63	2.91	> 100	–	–	–	> 76.6	–	–
CCn1c2ccccc2c2cc(Nc3cc(C)[nH]c(=O)n3)ccc21	> 100	> 100	> 100	–	> 100	> 100	> 100	> 100	> 100	–
CC(C)(C)[Si](C)(C)OC[C@H](/C=C\CCCC(=O)O)NC1(c2ccccc2)c2ccccc2-c2ccccc21	–	34.5	> 100	23.3	> 100	30.6	43.4	25.5	> 100	25.5
CCOc1cc2c(cc1O)C(N)C[C@@H]1[C@@H]2CC[C@]2(C)[C@@H](O)CC[C@@H]12 (stereo not given in full)	–	> 100	> 100	–	> 100	> 100	> 100	> 100	> 100	> 100
CC(C)C(NC(=O)C(Cc1ccccc1)NC(=O)[C@H]1CCC[C@H]1NC(=O)C(Cc1ccc(OC(C)(C)C)cc1)NC(=O)OC(C)(C)C)C(N)=O (stereo not given in full)	–	35.9	35	> 100	51.3	28.3	–	48.9	30.7	30.3
Clc1cc2nnn(C3CCCO3)c2cc1Cl (stereo not given)	> 100	> 100	> 100	–	–	> 100	> 100	–	> 100	–
O=S(=O)(O)c1cc(S(=O)(=O)O)c2c(N=Nc3ccc(N=Nc4ccccc4)cc3)c(O)ccc2c1	> 100	> 100	> 100	> 100	> 100	> 100	> 100	> 100	> 100	–
CC(C)c1ccc(/C=C2\CSCC3=C2N=C2SCC(=O)N2C3c2ccc(C(C)C)cc2)cc1 (stereo not given)	> 100	> 100	> 100	> 100	> 100	> 100	> 100	> 100	–	> 100
COc1ccc(CNc2nc3ccccc3nc2C(=O)O)cc1	–	> 100	> 100	68.2	> 100	> 100	> 100	> 100	> 100	> 100
CC(=O)OCC1OC(n2c(-c3ccccc3)c(N=Nc3ccc(C)cc3)c(C)c(C#N)c2=S)C(OC(C)=O)C(OC(C)=O)C1OC(C)=O (stereo not given)	–	> 100	74.9	> 100	11.4	33.4	> 100	0.856	–	64.1
CCCCCCCCCCCCO[P+](=O)OCCCCCCCCCCCC	> 100	> 100	> 100	> 100	> 100	> 100	62.2	> 100	> 100	–
CCOC(=O)C(C(=O)COC(C)(C)C)[C@@H]1C=C[C@H](OC(C)=O)C1 (stereo not given in full)	> 100	> 100	> 100	> 100	> 100	> 100	> 100	–	–	–
C(#Cc1ccccc1)SC1=C(c2ccccc2)S/C(=C(\SC#Cc2ccccc2)c2ccccc2)S1	–	> 100	> 100	–	> 100	> 100	> 100	> 100	> 100	> 100
COc1ccc2c(c1)CCC/C2=N\NS(=O)(=O)c1c(C)cc(C)cc1C	48.8	> 100	> 100	–	90.8	> 100	> 100	54.7	–	43
Cc1ccc(/C=C2/N=C(N/N=C\c3ccccc3)NC2=O)cc1	> 100	> 100	88.2	48.3	> 100	89.6	> 100	–	> 100	> 100
NS(=O)(=O)c1ccc(N=Nc2ccc(O)c(C(=O)O)c2)cc1	> 100	> 100	> 100	> 100	> 100	> 100	> 100	> 100	> 100	–
